# System: Plasmodium falciparum
# Test: GSK_TCMDC: Inhibition of Plasmodium falciparum 3D7 in whole erythrocytes, using parasite LDH activity as an index of growth.
# Assay type: functional, organism-based
# Settings: not given
row,Compound,XC50
1,O=C(Nc1ccccc1C(F)(F)F)NC1CCC(CN2CCC(c3c[nH]c4ccccc34)CC2)CC1 (stereo not given),946 nM

# Same assay, conditions: Plasmodium falciparum, 3D7
row,Compound,XC50
1,CCCCCN1CCC(NS(=O)(=O)c2ccc(C(=O)Nc3cccc(C(F)(F)F)c3)cc2)C1 (stereo not given),995 nM
2,CCOc1ccc(-c2nonc2NC(=O)c2ccc(F)cc2)cc1OCC,327 nM
3,C[C@H](N[C@H]1CCCc2c1[nH]c1ccc(Br)cc21)c1ccccc1,222 nM
4,COc1cc(OC)c(NC(=O)COc2ccc(C)cc2)cc1Cl,688 nM
5,Fc1cccc(COc2ccc(Nc3ncnc4sc(C#Cc5ncc[nH]5)cc34)cc2Cl)c1,134 nM
6,Nc1cccc(CNCc2cccc(-c3csc(-c4nc5ccccc5[nH]4)c3)c2)c1,685 nM
7,Cc1cc(=NN=Cc2ccccc2Cl)c2ccccc2[nH]1,904 nM
8,COc1cc2c(c(Cl)c1OC)CCN(Cc1ccccc1)CC2c1ccc(NC(=O)C(F)(F)F)cc1 (stereo not given),924 nM
9,CS(=O)(=O)Nc1cccc(-c2cnc3[nH]cc(-c4cc(N)cc(C(=O)O)c4)c3c2)c1,1080 nM
10,O=C(C=Cc1cccs1)Nc1ccc(-c2nc3ccccc3[nH]2)cc1,1140 nM
11,Cc1cc2nc(-c3ccc(C(=O)NC4CCN(Cc5ccccc5)CC4)cc3)[nH]c2cc1C,743 nM
12,Cc1cc(N[C@@H](CC(C)C)C(=O)NCCc2ccccc2)nc(NCC2CCCCC2)n1,904 nM
13,CC(CN1CCN(C)CC1)C(=O)Nc1cccc(-c2ccc(-c3nc4ccccc4[nH]3)cc2)c1 (stereo not given),943 nM
14,Cc1nc(Nc2ccc(F)cc2)nc(N2CCc3ccccc3C2C)c1CO (stereo not given),741 nM
15,CCN1CCN(c2cc(C)c3cc(NC(=O)c4ccc(Br)o4)ccc3n2)CC1,755 nM
16,O=C(NCCN1CCCCC1)c1ccc(Nc2nccc(Nc3ccc(Oc4ccccc4)cc3)n2)cc1,553 nM
17,O=C(Nc1ccccc1C(F)(F)F)NC1CCC(CN2CCC(c3c[nH]c4ccccc34)CC2)CC1 (stereo not given),784 nM
18,Cc1nc(N)nc(N)c1-c1cc(Cl)c(Cl)c(Cl)c1,834 nM
19,CN1CCCC(CN2CCN(Cc3ccc(-c4cccc(-c5nc6ccccc6[nH]5)c4)cc3)CC2)C1 (stereo not given),132 nM
20,CCC(C)NS(=O)(=O)c1ccc2nc(Nc3ccc(C)cc3)n(C3CCCCC3)c2c1 (stereo not given),462 nM
21,N=C(N)Nc1ccc(OCCCCCOc2ccc(NC(=N)N)cc2)cc1,193 nM
22,O=S(=O)(NC1=NCCC1)c1cccc(Nc2nc(C(F)(F)F)nc3ccccc23)c1,945 nM
23,O=C(/C=C/c1ccc(Cl)c(Cl)c1)NCC1CCN(Cc2ccc(O)cc2)CC1,694 nM
24,COc1ccc2nccc([C@@H](O)CN3CCC(NCc4ccc5c(c4)NC(=O)CS5)CC3)c2c1,567 nM
25,CN1CCCC(CN2CCN(Cc3cccc(-c4ccc(-c5nc6cc(F)ccc6[nH]5)cc4)c3)CC2)C1 (stereo not given),139 nM

row,Compound,XC50
1,CN(C)CCN(C)Cc1cccc(-c2ccc3c(Nc4ccc(F)cc4Cl)ccnc3c2)c1,110 nM
2,CCc1cc2c3c(N)nc(N)nc3ccc2n1C(CC)CC,63.7 nM
3,CCC(C)(C)NC(C)C(O)c1ccc(C(F)(F)F)cc1 (stereo not given),750 nM
4,COc1ccc(C2CCN(CCCCNC(=O)c3ccc(NC(=O)c4ccc(Cl)cc4)cc3)CC2)c(OC)c1,570 nM
5,O=S(=O)(NCCN1CCCC1)c1ccc(-c2ccc(CNCc3ccsc3)cc2)cc1F,810 nM
6,CCN(CC)CCN(Cc1ccc(-c2ccc(C(F)(F)F)cc2)cc1)C(=O)Cn1c(CCc2ccc(F)c(F)c2)nc(=O)c2ccccc21,1580 nM
7,COC(=O)CCCCOc1c(OC)cc(Cc2cnc(N)nc2N)cc1OC,39.3 nM
8,N=C(N)CCN(Cc1ccc(Cl)cc1)c1ccc(Cl)cc1,1060 nM
9,CC1(C)NC(N)=NC(=N)N1OCc1ccc2ccccc2c1CON1C(=N)N=C(N)NC1(C)C,663 nM
10,CC(C)C[C@H](NC(=O)c1cc2ccccc2s1)C(=O)N[C@H]1CCN(Cc2ccc(OC[C@@H]3CCCN3C)c(Cl)c2)C1,853 nM
11,O=C(/C=C/c1ccc(C(F)(F)F)cc1)NCCCCCN1CCN(C(=O)Nc2ccc(Cl)cc2)CC1,1010 nM
12,CC(C)(C)c1cc(C(=O)Nc2cccnc2)cc(C(=O)Nc2cccnc2)c1,761 nM
13,COc1ccc(CN2CCC(N3CC(c4ccccc4)(c4ccccc4)OCC3=O)C2)c(O)c1 (stereo not given),931 nM
14,NC1=NC(c2ccccc2)(c2ccccc2)C(=O)N1Cc1ccccc1Br,865 nM
15,CCOc1c(CNCCCCCCNCc2ccc3ccccc3c2OCC)ccc2ccccc12,759 nM
16,Cc1nc2nc(N)nc(N)c2c(C)c1Cc1ccc(N)cc1,644 nM
17,O=[N+]([O-])c1ccc(N/C(=N\c2ccccc2Br)NC2CCCc3ccccc32)c(O)c1 (stereo not given),919 nM
18,O=C(Nc1ccc(C(F)(F)F)cc1)NC1CCN(c2ccnc3cc(Cl)ccc23)C1 (stereo not given),139 nM
19,O=C(NCCN1CCCc2ccccc21)C1CCN(c2nc(-c3ccc(Cl)cc3)no2)CC1,695 nM
20,COc1ccc(NC(=O)CCNc2cc(C)nc(NCc3cccc(C)c3)n2)cc1,1090 nM
21,N#Cc1ccc(-c2ccc(C(=O)NC3CCN(CCN4CCC(c5cn(CCOC6CCCCO6)c6ccccc56)CC4)CC3)cc2)cc1 (stereo not given),599 nM
22,COc1ccc2nc3cc(Cl)ccc3c(NCCc3ccccc3)c2c1,950 nM
23,CCOC(=O)COc1cccc(CNc2ccc3nc(N)nc(N)c3c2)c1,408 nM
24,CCCCCN1CCCC1CNS(=O)(=O)c1cccc(C(=O)Nc2cccc(C#N)c2)c1 (stereo not given),978 nM
25,Cc1cnc(N2CCN(CC3CCN(C)CC3)CC2)nc1Oc1ccc(-n2ccnc2)cc1,725 nM

row,Compound,XC50
1,COC1CCC(C(=O)Nc2ccc(-c3cccc(-c4nc5cc(C(F)(F)F)ccc5[nH]4)c3)cc2)CC1 (stereo not given),547 nM
2,CN1CC(c2ccccc2)c2cc(O)c(CN3CCCCC3)cc2CC1Cc1ccccc1 (stereo not given),176 nM
3,Cc1ccc(O)cc1Nc1ccnc2cc(-c3nccs3)ccc12,879 nM
4,OC(CNCCCc1ccccc1)c1cc(OCc2ccccc2)cc(OCc2ccccc2)c1 (stereo not given),851 nM
5,COc1ccccc1Nc1nc(NC2CCN(C)CC2)cc(-c2cccc(C(F)(F)F)c2)n1,919 nM
6,CC(=O)N/N=C/[C@H](CCc1ccccc1)NC(=O)[C@H](CC(C)C)NC(=O)c1ccc(F)cc1,692 nM
7,Cc1ccc(CC(C)NCC(O)c2cccc(C(F)(F)F)c2)c(C)c1 (stereo not given),703 nM
8,CCN(CC)CCN(Cc1ccc(-c2ccc(C(F)(F)F)cc2)cc1)C(=O)Cn1cc(CCCc2cccc(F)c2F)c(=O)c2ccccc21,1060 nM
9,Cn1cnc2nc(NCCc3ccccc3)nc(NCc3cccc4ccccc34)c21,327 nM
10,CNC(=O)c1ccc2[nH]cc(C3CCN(CC4CCN(C(=O)/C=C/c5ccc(Cl)c(Cl)c5)CC4)CC3)c2c1,1520 nM
11,COc1ccc2ncc(F)c([C@@H](O)CN3CCC(NCc4cc5c(cn4)OCCO5)CC3)c2c1,140 nM
12,O=C(CCC1CCCC1)N(Cc1ccc(-c2ccc(CNCCc3ccccn3)cc2)cc1)CC1CCCCN1 (stereo not given),1150 nM
13,N#Cc1ccc(N(CCCO)Cc2ccccc2C(F)(F)F)cc1C(F)(F)F,978 nM
14,O=C(Nc1cc(Cl)ccc1Cl)N[C@H]1CCN(CCCCCNC(=O)C2CC2c2ccc(Cl)c(Cl)c2)C1 (stereo not given in full),770 nM
15,Cc1ccc(Cn2ncc(N3CC(C)NC(C)C3)c(Cl)c2=O)cc1NC(=O)Nc1ccc(-c2ccccc2)cc1 (stereo not given),739 nM
16,CC[C@H]1CN(Cc2cccc(O)c2)CC[C@H]1CCCc1ccnc2ccc(O)cc12,534 nM
17,Cc1ccc(NC(=O)NC2CCN(c3ccnc4ccccc34)CC2)cc1,790 nM
18,COc1cc(NC(=O)N2CCc3ccc(OCCC4CCCN4C)cc32)cc(C(F)(F)F)c1 (stereo not given),714 nM
19,Oc1cc(Nc2ccnc3cc(I)ccc23)ccc1F,740 nM
20,CCOC(=O)c1ccc(NC(=O)Nc2ccc(-c3ccc(-c4nc5ccccc5[nH]4)cc3)cc2)cc1,22.3 nM
21,CCc1cc(-c2onc(C(F)(F)F)c2-c2ccccc2)c(O)cc1OC,787 nM
22,CCc1cn(C)c2c(N3CCCC3=O)cc(C(=O)N[C@@H](Cc3ccccc3)[C@H](O)CNC(C)(C)c3cccc(OC)c3)cc12,36 nM
23,Cc1nc2nc(N)nc(N)c2c(C)c1Cc1cccc(C(N)=O)c1,1080 nM
24,COc1cc2nc(N3CCC(CNC(=O)c4ccc(OC(F)(F)F)cc4)CC3)nc(N)c2cc1OC,224 nM
25,CCCC(C)Nc1nc(C)cc(N[C@@H](Cc2ccccc2)C(=O)NCc2ccc(C)cc2)n1 (stereo not given in full),1120 nM

row,Compound,XC50
1,CN(CCN)Cc1ccc(-c2ccc(-c3nc4cc(C(F)(F)F)ccc4[nH]3)s2)cc1,607 nM
2,Cc1noc(-c2ccc3c(c2)CCN(CCC2CCC(NC(=O)/C=C/c4cccc(Cl)c4)CC2)CC3)n1 (stereo not given),998 nM
3,Cc1ccc(NC(=O)c2c(C)noc2-c2snnc2C)cc1,1370 nM
4,O=C(O)CNCC(O)c1ccccc1 (stereo not given),184 nM
5,Clc1ccc(Cn2nc(Br)nc2Br)c(Cl)c1,439 nM
6,CCCOC(=O)c1ccc(OCCCON2C(=N)N=C(N)NC2(C)C)cc1,3.2 nM
7,COc1ccc2ncc(F)c(CCN3CCC(CNC(=O)C(=O)c4c[nH]c5ccccc45)CC3)c2n1,389 nM
8,Cc1cc(OCC2CCN(c3ncc(C(=O)Nc4ccccc4)cc3Cl)CC2)ccc1F,899 nM
9,COC(=O)c1cccc(CNCc2cccc(-c3cccc(-c4nc5cc(C(F)(F)F)ccc5[nH]4)c3)c2)c1,172 nM
10,CN(C)C(C)(C)CN(Cc1ccc(-c2ccc(C(F)(F)F)cc2)cc1)C(=O)Cn1c(CCc2cccc(F)c2F)nc(=O)c2ccccc21,827 nM
11,CCOc1cc(C(=O)Nc2ccc(-c3nc4ccccc4[nH]3)cc2)cc(OCC)c1OCC,234 nM
12,Cc1nc2ccc(NC(=O)c3cc(S(=O)(=O)N(C)C)ccc3Cl)cc2s1,816 nM
13,OCC1CCN(Cc2ccc(-c3cccc(-c4nc5ccccc5[nH]4)c3)cc2)CC1,813 nM
14,CC(C)(C)c1ccc(NC(=O)c2ccc(CN3CCCN(Cc4cccc(C#N)c4)CC3)cc2)cc1,641 nM
15,O=C(/C=C/c1ccc(C(F)(F)F)cc1)NCCCCCN1CCCN(C(=O)Nc2ccc(Cl)cc2)CC1,869 nM
16,Cc1ccccc1Nc1nc(NCCCO)c2ccccc2n1,407 nM
17,CN1CCCN(Cc2cccc(-c3cccc(NC(=O)c4cccc(C#N)c4)c3)c2)CC1,818 nM
18,CCOc1cc(CC)ccc1C1CCN(CCCCNC(=O)c2ccc(NC(=O)c3ccc(Cl)cc3)cc2)CC1,743 nM
19,Cc1cccc(CNc2nccc3[nH]c4ccccc4c23)c1,1900 nM
20,Cc1cccc2nc(-c3cccc(-c4cccc(CNCCNC(=O)c5ccnn5C)c4)c3)[nH]c12,192 nM
21,O=S(=O)(c1cccc(Br)c1)N1CCCCC(c2ccc(C(F)(F)F)cc2)=N1,554 nM
22,CCN(CCN(C)C)Cc1ccc(-c2ccc(NS(=O)(=O)c3cccc(Cl)c3)cc2)cc1,523 nM
23,CCCCN(CCCC)/C(=N/c1cccc(Cl)c1Cl)Nc1ccc(C#N)cc1O,853 nM
24,Oc1nc(Cc2ccccc2)nc2ccc(Cl)cc12,879 nM

# From ChEMBL document CHEMBL1157539, “Thousands of chemical starting points for antimalarial lead identification” (Nature, 2010)
